Reference: patent publication EP0252525B1, “Alpha-amylase assay using modified oligosaccharide and process for producing said modified oligosaccharide” (WAKO PURE CHEMICAL INDUSTRIES, LTD, priority 1986, dated 1988)
Values joined by “and” are separate entries in the source; they are usually repeats but may differ in a detail not shown here. Equal entries are not always repeated.

Tests used:
Assay type in all cases: biochemical
HPA [1] = biological target: T1, HPA (Homo sapiens, UniProt P04746); experiment: Km determination (Lineweaver-Burk plot, products measured by HPLC); conditions: 50 mM BES/NaOH buffer pH 7.6, 37°C, 5 min
T1 sequence (P04746 16-511): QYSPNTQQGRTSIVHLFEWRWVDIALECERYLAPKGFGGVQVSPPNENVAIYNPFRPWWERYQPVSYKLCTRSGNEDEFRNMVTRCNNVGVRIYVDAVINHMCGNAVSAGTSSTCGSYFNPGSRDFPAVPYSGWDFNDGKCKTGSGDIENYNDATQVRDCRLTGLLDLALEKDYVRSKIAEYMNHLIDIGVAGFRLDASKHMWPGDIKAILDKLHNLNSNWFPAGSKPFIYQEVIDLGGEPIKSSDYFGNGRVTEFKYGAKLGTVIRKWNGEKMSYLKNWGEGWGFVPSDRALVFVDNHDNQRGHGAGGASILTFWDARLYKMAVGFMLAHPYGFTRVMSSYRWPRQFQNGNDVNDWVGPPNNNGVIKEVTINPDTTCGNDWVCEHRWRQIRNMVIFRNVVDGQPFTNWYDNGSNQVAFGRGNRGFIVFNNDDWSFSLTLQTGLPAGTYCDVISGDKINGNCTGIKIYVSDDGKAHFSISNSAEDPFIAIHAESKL
Procedure: The amounts of the products were measured with HPLC.

glucoamylase = experiment: Action of glucoamylase on the modified oligosaccharide
HPA [2] = biological target: T1, HPA; experiment: Binding mode (distribution of hydrolysis products) by HPLC; conditions: for Hydrolysis product G2P: share of product G2P; for Hydrolysis product G3P: share of product G3P; for Hydrolysis product G4P: share of product G4P; for Hydrolysis product GP: share of product GP
Procedure: (§1) The binding mode of each substrate were measured with high-performance liquid chromatography (HPLC) as described above.

HSA = biological target: T2, HSA (Homo sapiens, UniProt P0DUB6); experiment: as above; conditions: for Hydrolysis product G2P: share of product G2P; for Hydrolysis product G3P: share of product G3P; for Hydrolysis product G4P: share of product G4P; for Hydrolysis product GP: share of product GP
T2 sequence (P0DUB6 16-511): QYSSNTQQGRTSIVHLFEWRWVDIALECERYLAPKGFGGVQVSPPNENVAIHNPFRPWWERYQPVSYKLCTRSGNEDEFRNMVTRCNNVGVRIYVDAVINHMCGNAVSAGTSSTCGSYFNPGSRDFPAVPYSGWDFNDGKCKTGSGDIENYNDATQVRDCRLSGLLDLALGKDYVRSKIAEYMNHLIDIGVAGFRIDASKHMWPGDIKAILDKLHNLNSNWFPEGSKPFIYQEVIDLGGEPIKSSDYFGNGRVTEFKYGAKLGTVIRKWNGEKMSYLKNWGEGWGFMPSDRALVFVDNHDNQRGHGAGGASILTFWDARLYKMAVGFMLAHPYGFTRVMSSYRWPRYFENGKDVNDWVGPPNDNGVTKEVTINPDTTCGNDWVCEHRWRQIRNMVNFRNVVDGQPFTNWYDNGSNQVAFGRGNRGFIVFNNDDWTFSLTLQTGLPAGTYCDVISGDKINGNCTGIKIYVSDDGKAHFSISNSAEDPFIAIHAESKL
Procedure: as §1

[3] = biological target: T3, human salivary α-amylase (HSA) (Homo sapiens, UniProt P0DUB6); experiment: Hydrolysis rate of substrates by α-amylase (relative to G5P); conditions: substrate 1.0 mM, pH 7, value of G5P taken as 1
T3 sequence (P0DUB6 16-511): T2 sequence (P0DUB6 16-511)
Procedure: (§2) The above-mentioned advantages can be shown by using the following oligosaccharides: [drawing 6] n = 2: BG4P n = 3: BG5P (the present invention) n = 4: BG6P n = 5: BG7P [drawing 7] n = 2: G4P n = 3: G5P (standard) n = 4: G6P n = 5: G7P [drawing 8] n = 2: BDG4P n = 3: BDG5P n = 4: BDG6P n = 5: BDG7P The hydrolysis rate is measured by using human pancreatic α-amylase (HPA) or human salivary α-amylase (HSA) for each substrate (1.0 mM) at pH 7, and evaluating by means of relative values by taking the value of G5P as 1.

[4] = biological target: T4, human pancreatic α-amylase (HPA) (Homo sapiens, UniProt P04746); experiment: as above; conditions: substrate 1.0 mM, pH 7, value of G5P taken as 1
T4 sequence (P04746 16-511): T1 sequence (P04746 16-511)
Procedure: as §2

Structure (SMILES) | Km (HPA [1]) | action of glucoamylase on the substrate (glucoamylase) | Hydrolysis product G2P (HPA [2]) [%] | Hydrolysis product G3P (HPA [2]) [%] | Hydrolysis product G4P (HPA [2]) [%] | Hydrolysis product GP (HPA [2]) [%] | Hydrolysis product G2P (HSA) [%] | Hydrolysis product G3P (HSA) [%] | Hydrolysis product G4P (HSA) [%] | Hydrolysis product GP (HSA) [%] | hydrolysis rate (relative value) [3] | hydrolysis rate (relative value) [4]
O=[N+]([O-])c1ccc(O[C@H]2O[C@H](CO)[C@@H](O[C@H]3O[C@H](CO)[C@@H](O[C@H]4O[C@H](CO)[C@@H](O[C@H]5O[C@H](CO)[C@@H](O[C@H]6O[C@H](COCc7ccccc7)[C@@H](O)[C@H](O)[C@H]6O)[C@H](O)[C@H]5O)[C@H](O)[C@H]4O)[C@H](O)[C@H]3O)[C@H](O)[C@H]2O)cc1 [BG5P, p-nitrophenyl O-(6-O-benzyl)-α-D-glycopyranosyl-(1→4)-O-α-D-glucopyranosyl-(1→4)-O-α-D-glucopyranosyl-(1→4)-O-α-D-glucopyranosyl-(1→4)-α-D-glucopyranoside] | 110 µM and 106 µM | not acted by glucoamylase | 95 | 0 | 0 | 5 | 98 | 0 | 0 | 2 | 1.4 | 1.4
O=[N+]([O-])c1ccc(O[C@H]2O[C@H](CO)[C@@H](O[C@H]3O[C@H](CO)[C@@H](O[C@H]4O[C@H](CO)[C@@H](O[C@H]5O[C@H](CO)[C@@H](O[C@H]6O[C@H](CBr)[C@@H](O)[C@H](O)[C@H]6O)[C@H](O)[C@H]5O)[C@H](O)[C@H]4O)[C@H](O)[C@H]3O)[C@H](O)[C@H]2O)cc1 [BrG5P] | – | not acted by glucoamylase | – | – | – | – | – | – | – | – | – | –
O=[N+]([O-])c1ccc(O[C@H]2O[C@H](CO)[C@@H](O[C@H]3O[C@H](CO)[C@@H](O[C@H]4O[C@H](CO)[C@@H](O[C@H]5O[C@H](CO)[C@@H](O[C@H]6O[C@H](CO)[C@@H](O)[C@H](O)[C@H]6O)[C@H](O)[C@H]5O)[C@H](O)[C@H]4O)[C@H](O)[C@H]3O)[C@H](O)[C@H]2O)cc1 [Substrate G5P] | 360 µM and 358 µM | – | 73 | 12 | 0 | 15 | 83 | 11 | 0 | 6 | 1.0 | 1.0
